Results on 63 molecules are retold here after patent US20060252807A1, “Novel ortho-terphenyl inhibitors of p38 kinase and methods of treating inflammatory disorders” (Kalypsys, Inc., priority 2005, published 2006).

Bounds are passed on as bounds.

Usually IC50 stands for the concentration needed to halve the response being measured. A higher IC50 goes with a need for much substance.

In one experiment the target is T1, active p38 alpha enzyme (Upstate Biotechnology) (Homo sapiens, UniProt Q16539).
T1 construct: purchased Upstate Biotechnology
T1 sequence (Q16539 whole entry): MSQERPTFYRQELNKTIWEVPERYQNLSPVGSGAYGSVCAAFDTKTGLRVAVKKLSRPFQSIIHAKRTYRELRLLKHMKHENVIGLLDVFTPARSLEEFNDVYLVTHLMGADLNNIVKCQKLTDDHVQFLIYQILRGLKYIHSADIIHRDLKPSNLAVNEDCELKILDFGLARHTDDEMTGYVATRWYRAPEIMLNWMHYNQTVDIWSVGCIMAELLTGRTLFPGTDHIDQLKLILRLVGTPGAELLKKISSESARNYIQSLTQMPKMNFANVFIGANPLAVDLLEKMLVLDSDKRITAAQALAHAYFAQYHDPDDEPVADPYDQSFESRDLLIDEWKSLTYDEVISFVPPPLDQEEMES
In words: p38α biochemical assay (ATP turnover, luminescent detection, Cambrex PKlight). The note with it: p38α biochemical assay, Table 1 Biological Activity. The essentials: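 p38α + MapkapK2 (whole protein substrate) + 1.4 uM ATP final; Tris/MOPS buffer with MgCl2, CaCl2, EGTA, EDTA, glycerol, β-ME, BSA; 2 h at 30C; luminescent detection of remaining ATP.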
Molecule `CCNC(=O)c1csc(-c2c(-c3ccc(F)cc3)n[nH]c2C)n1` [Example 72, 2-|3-(4-Fluoro-phenyl)-5-methyl-1H-pyrazol-4-yl|-thiazole-4-carboxylic acid ethylamide] displayed a concentration for half-maximal inhibition (IC50) not above 1000 nM.
The same measure, in the same setting: the figure for `CC(C)NC(=O)c1csc(-c2c(-c3ccc(F)cc3)noc2CNC(=O)c2cc3ccccc3cc2O)n1` [Example 719] is more than 1000 nM; for `Cc1cc(C)cc(C(=O)NCc2nc(-c3ccc(F)cc3)c(-c3nc(C(=O)NC(C)C)cs3)o2)c1` [Example 138] it is more than 1000 nM; for `CC(C)NC(=O)c1csc(-c2oc(CN3CCN(C(=O)c4ccc(Cl)cc4O)CC3)nc2-c2ccc(F)cc2)n1` [Example 432] it is not above 1000 nM.
Still for that read-out and setting: the same measure for `Cc1onc(-c2ccc(Cl)cc2)c1-c1ccn(C(=O)NC(CO)CO)n1` [Example 14, 3-|3-(4-Chloro-phenyl)-5-methyl-isoxazol-4-yl|-pyrazole-1-carboxylic acid (2-hydroxy-1-hydroxymethyl-ethyl)-amide]: more than 1000 nM.
Still for that read-out and setting: the figure for `CC(C)NC(=O)c1csc(-c2oc(CNC(=O)c3ccc4cccc(O)c4n3)nc2-c2ccc(F)cc2)n1` [Example 246] is not above 1000 nM; for `CC(C)NC(=O)c1csc(-c2oc(CN3CCN(C(=O)Cc4ccc(C(F)(F)F)cc4)CC3)nc2-c2ccc(F)cc2)n1` [Example 516] it is not above 1000 nM.
Turning to `CC(C)NC(=O)c1csc(-c2c(-c3ccc(F)cc3)noc2CNC(=O)Cc2c(F)cccc2F)n1` [Example 668], the IC50 was more than 1000 nM.
The same measure, in the same setting: the same measure for `CC(C)NC(=O)c1csc(-c2oc(CNC(=O)c3ccccc3Cc3ccccc3)nc2-c2ccc(F)cc2)n1` [Example 287]: more than 1000 nM; for `CC(C)NC(=O)c1csc(-c2c(-c3ccc(F)cc3)noc2CNC(=O)c2c3ccccc3cc3ccccc23)n1` [Example 778]: more than 1000 nM; for `CC(C)NC(=O)c1csc(-c2oc(CNC(=O)c3cc([N+](=O)[O-])ccc3F)nc2-c2ccc(F)cc2)n1` [Example 235]: more than 1000 nM.
The same measure, in the same setting: the same measure for `CC(C)NC(=O)c1csc(-c2c(-c3ccc(F)cc3)noc2CNC(=O)c2ccc(Br)cc2)n1` [Example 744]: more than 1000 nM.
For `CC(C)NC(=O)c1csc(-c2c(-c3ccc(F)cc3)noc2CNC(=O)c2ccc(N(C)C=O)cc2)n1` [Example 685], the IC50 was more than 1000 nM.
Still for that read-out and setting: the same measure for `CC(C)NC(=O)c1csc(-c2c(-c3ccc(F)cc3)noc2CNC(=O)c2ccncc2)n1` [Example 588]: more than 1000 nM.
The same measure, in the same setting: the same measure for `CC(C)CC(NC(=O)OC(C)(C)C)C(=O)NCc1nc(-c2ccc(F)cc2)c(-c2nc(C(=O)NC(C)C)cs2)o1` (stereo not drawn) [Example 329]: more than 1000 nM.

Staying with this experiment, now noted: p38α kinase; Table 1 Biological Activity.
The molecule `Cc1ccc(CCNC(=O)c2csc(-c3sc(C)nc3-c3ccc(F)cc3)n2)cc1` [Example 1768] returned a half-inhibitory concentration (IC50) of more than 1000 nM.
Same read-out and setting: the figure for `Cc1nc(-c2ccc(F)cc2)c(-c2nc(C(=O)Nc3cc(C(F)(F)F)ccc3C(F)(F)F)cs2)s1` [Example 2022] is more than 1000 nM; for `CC(C)NC(=O)c1csc(-c2oc(CNc3cc(C(F)(F)F)ccc3C(F)(F)F)nc2-c2ccc(F)cc2)n1` [Example 1372] it is more than 1000 nM.
On the same count and under the same terms, the same measure for `COc1ccc(C(=O)CNC(=O)c2csc(-c3sc(C)nc3-c3ccc(F)cc3)n2)cc1` [Example 1829]: more than 1000 nM; for `Cc1nc(-c2ccc(F)cc2)c(-c2nc(C(=O)N3CCN(c4ccccc4C#N)CC3)cs2)s1` [Example 1911]: not above 1000 nM; for `CC(C)NC(=O)c1csc(-c2oc(CN3CCN(CCc4ccccc4)CC3)nc2-c2ccc(F)cc2)n1` [Example 1265]: more than 1000 nM.
On to `CC(C)NC(=O)c1csc(-c2oc(CNC3CONC3=O)nc2-c2ccc(F)cc2)n1` (stereo not drawn) [Example 1081], for which the half-maximal inhibitory concentration (IC50) is more than 1000 nM.
Same read-out and setting: the same measure for `Cc1nc(-c2ccc(F)cc2)c(-c2nc(C(=O)N[C@@H](C)c3ccccc3)cs2)s1` [Example 1752]: not above 1000 nM; for `C#CCN(C)C(=O)c1csc(-c2sc(C)nc2-c2ccc(F)cc2)n1` [Example 1836]: more than 1000 nM; for `CC(CO)NC(=O)c1csc(-c2c(-c3ccc(F)cc3)n[nH]c2C2CCNCC2)n1` (stereo not drawn) [Example 2042]: not above 1000 nM.
`CC(C)NC(=O)c1csc(-c2c(-c3ccc(F)cc3)n[nH]c2C2CCN(C(=O)C3CCCCN3C(=O)OC(C)(C)C)CC2)n1` (stereo not drawn) [Example 1025] displayed an IC50 of more than 1000 nM.
`CC(C)NC(=O)c1csc(-c2c(-c3ccc(F)cc3)noc2CN2CCN(c3ccc(Cl)cc3)CC2)n1` [Example 1600] showed an IC50 of more than 1000 nM.
The same measure, in the same setting: the same measure for `Cc1nc(-c2ccc(F)cc2)c(-c2nc(C(=O)NCc3cccs3)cs2)s1` [Example 1743]: not above 1000 nM; for `COc1cc(CNC(=O)c2csc(-c3sc(C)nc3-c3ccc(F)cc3)n2)cc(OC)c1` [Example 1813]: not above 1000 nM.
Same read-out and setting: the figure for `Cc1nc(-c2ccc(F)cc2)c(-c2nc(C(=O)Nc3ccc(F)cc3)cs2)s1` [Example 1964] is more than 1000 nM; for `CC(C)NC(=O)c1csc(-c2c(-c3ccc(F)cc3)noc2CNc2ccc(F)cc2C(F)(F)F)n1` [Example 1688] it is more than 1000 nM.
On the same count and under the same terms, the same measure for `CC(C)NC(=O)c1csc(-c2c(-c3ccc(F)cc3)noc2CNC2CCCCC2C)n1` (stereo not drawn) [Example 1423]: more than 1000 nM.
`CCC(CO)NCc1onc(-c2ccc(F)cc2)c1-c1nc(C(=O)NC(C)C)cs1` (stereo not drawn) [Example 1405] returned a half-inhibitory concentration (IC50) of more than 1000 nM.
Still for that read-out and setting: the same measure for `COc1ccc(OC)c(CCNC(=O)c2csc(-c3sc(C)nc3-c3ccc(F)cc3)n2)c1` [Example 1823]: not above 1000 nM; for `CC(=O)c1ccc(N2CCN(C(=O)c3csc(-c4sc(C)nc4-c4ccc(F)cc4)n3)CC2)cc1` [Example 1931]: more than 1000 nM.
`CC(C)NC(=O)c1csc(-c2c(-c3ccc(F)cc3)noc2CNc2ccccc2-c2ccccc2)n1` [Example 1685] gave an IC50 of more than 1000 nM.
Same read-out and setting: the figure for `CC(C)NC(=O)c1csc(-c2c(-c3ccc(F)cc3)n[nH]c2C2CCN(C(=O)c3cc(Cl)c(O)c(Cl)c3)CC2)n1` [Example 995] is more than 1000 nM; for `CC(C)NC(=O)c1csc(-c2c(-c3ccc(F)cc3)n[nH]c2C2CCN(C(=O)C3CCCN3C(=O)OC(C)(C)C)CC2)n1` (stereo not drawn) [Example 1009] it is more than 1000 nM.
`COc1cccc(CNCc2nc(-c3ccc(F)cc3)c(-c3nc(C(=O)NC(C)C)cs3)o2)c1` [Example 1126] gave an IC50 of more than 1000 nM.
The same measure, in the same setting: the figure for `CC(C)NC(=O)c1csc(-c2oc(CN3CCC(N(C)C(=O)OC(C)(C)C)C3)nc2-c2ccc(F)cc2)n1` (stereo not drawn) [Example 1279] is more than 1000 nM; for `CC(C)NC(=O)c1csc(-c2c(-c3ccc(F)cc3)noc2CNc2cccc(C(F)(F)F)c2)n1` [Example 1681] it is more than 1000 nM; for `CC(C)CC(NC(=O)OC(C)(C)C)C(=O)NCc1onc(-c2ccc(F)cc2)c1-c1nc(C(=O)NC(C)C)cs1` (stereo not drawn) [Example 804] it is more than 1000 nM.
`COc1ccccc1CNCc1onc(-c2ccc(F)cc2)c1-c1nc(C(=O)NC(C)C)cs1` [Example 1455]: the IC50 was more than 1000 nM.
The same measure, in the same setting: the figure for `CCN(Cc1onc(-c2ccc(F)cc2)c1-c1nc(C(=O)NC(C)C)cs1)C(C)C` [Example 1518] is more than 1000 nM; for `CC(C)NC(=O)c1csc(-c2c(-c3ccc(F)cc3)noc2CN2CCN(c3ccccc3Cl)CC2)n1` [Example 1627] it is more than 1000 nM.
Still for that read-out and setting: the figure for `CC(C)NC(=O)c1csc(-c2c(-c3ccc(F)cc3)noc2CN(C)C2CCCCC2)n1` [Example 1532] is more than 1000 nM.
On the same count and under the same terms, the figure for `CC(C)NC(=O)c1csc(-c2oc(CNC(CO)C(C)C)nc2-c2ccc(F)cc2)n1` (stereo not drawn) [Example 1083] is more than 1000 nM.
In turn, `CCN(Cc1nc(-c2ccc(F)cc2)c(-c2nc(C(=O)NC(C)C)cs2)o1)C(C)C` [Example 1193] had an IC50 of more than 1000 nM.
Still for that read-out and setting: the same measure for `CC(C)NC(=O)c1csc(-c2oc(CNCCc3ccc(S(N)(=O)=O)cc3)nc2-c2ccc(F)cc2)n1` [Example 1176]: not above 1000 nM.
Still for that read-out and setting: the same measure for `N#CCNC(=O)c1csc(-c2c(-c3ccc(F)cc3)n[nH]c2C2CCNCC2)n1` [Example 2032]: not above 1000 nM; for `CC(C)NC(=O)c1csc(-c2oc(CN3CCN(c4ccc(F)cc4)CC3)nc2-c2ccc(F)cc2)n1` [Example 1254]: more than 1000 nM; for `CC(C)NC(=O)c1csc(-c2oc(CNCCCO)nc2-c2ccc(F)cc2)n1` [Example 1063]: more than 1000 nM.
On the same count and under the same terms, the figure for `Cc1nc(-c2ccc(F)cc2)c(-c2nc(C(=O)N3CCC[C@@H]3CO)cs2)s1` [Example 1851] is more than 1000 nM; for `CC(C)NC(=O)c1csc(-c2c(-c3ccc(F)cc3)noc2CNCCc2ccc3c(c2)OCO3)n1` [Example 1505] it is more than 1000 nM; for `CC(C)CC(C)NCc1onc(-c2ccc(F)cc2)c1-c1nc(C(=O)NC(C)C)cs1` (stereo not drawn) [Example 1411] it is more than 1000 nM.
With `CC(=O)Oc1ccccc1C(=O)N1CCC(c2[nH]nc(-c3ccc(F)cc3)c2-c2nc(C(=O)NC(C)C)cs2)CC1` [Example 930], the IC50 is more than 1000 nM.
On the same count and under the same terms, the same measure for `Cc1ccc(N2CCN(Cc3onc(-c4ccc(F)cc4)c3-c3nc(C(=O)NC(C)C)cs3)CC2)c(C)c1` [Example 1593]: more than 1000 nM; for `COc1ccc(CCNCc2onc(-c3ccc(F)cc3)c2-c2nc(C(=O)NC(C)C)cs2)cc1` [Example 1475]: more than 1000 nM; for `CC(C)NC(=O)c1csc(-c2c(-c3ccc(F)cc3)n[nH]c2C2CCN(C(=O)c3cc(O)ccc3O)CC2)n1` [Example 860]: more than 1000 nM.
Turning to `Cc1ccc(F)cc1C(=O)N1CCC(c2[nH]nc(-c3ccc(F)cc3)c2-c2nc(C(=O)NC(C)C)cs2)CC1` [Example 864], the IC50 was more than 1000 nM.
On the same count and under the same terms, the same measure for `Cc1nc(-c2ccc(F)cc2)c(-c2nc(C(=O)N3CCC(NC(=O)OC(C)(C)C)C3)cs2)s1` (stereo not drawn) [Example 1910]: more than 1000 nM.
With `CC(C)NC(=O)c1csc(-c2c(-c3ccc(F)cc3)noc2CN[C@@H](C)c2ccccc2)n1` [Example 1428], the half-maximal inhibitory concentration (IC50) was more than 1000 nM.
Still for that read-out and setting: the figure for `CC(C)NC(=O)c1csc(-c2c(-c3ccc(F)cc3)noc2CNCCN)n1` [Example 1389] is more than 1000 nM.
